Results reported in patent US11304907B2, “Pharmaceutical compositions containing a DGAT1 inhibitor” (Novartis AG, priority 2010, dated 2022).
Counter-ions that a name gives are not always drawn.

Legend:
[1] = Physicochemical properties of the drug substance
Description: However, the compound of formula (I), or a pharmaceutically acceptable salt thereof, in particular the sodium salt thereof, is a drug substance which is difficult to formulate due to its physicochemical properties. […] It is also plate like, very fluffy, and sticky in nature.

[2] = Disintegrant compatibility / stress storage; assay type: physicochemical; conditions: due to the presence of residual formaldehyde
Description: It can be seen from the above table that core tablets formulated with Cross linked polyvinyl pyrollidone (PVP-XL) show a slower release compared to the Sodium Starch Glycollate (SSG), and Croscarmellose Sodium (Ac-Di-Sol) based formulations. […] Formulations containing Croscarmellose Sodium (Ac-Di-Sol) were also found to turn to yellow when prepared and exposed to 50° C. dry as well as 50° C./75% […] humidity for 4 weeks.

moisture uptake ([1]; at 95% relative humidity): high moisture uptake
hygroscopicity ([1]; drug substance, sodium salt): hygroscopic
solubility ([1]; drug substance, sodium salt): poorly soluble
compatibility with Cross linked polyvinyl pyrollidone (PVP-XL) [2]: incompatible
Structure (SMILES): O=C(O)C[C@H]1CC[C@H](c2ccc(-c3ccc(Nc4ccc(C(F)(F)F)nc4)cn3)cc2)CC1 [compound of formula (II), trans-(4-{4-[5-(6-Trifluoromethyl-pyridin-3-ylamino)-pyridin-2-yl]-phenyl}-cyclohexyl)-acetic acid, sodium salt]
